Assay results reported in publication PMC8776995 (Frontiers in Chemistry, 2022).
“And” between values parts separate entries of the source, which are not always exact repeats. Identical values can stand only once.

Experiments:
[1] = system: H1975 cells; assay: CCK-8 antiproliferation assay, H1975; details: for Inhibitory efficacy: H1975 cells
[2] = target: wild-type EGFR (Homo sapiens, UniProt P00533); assay: EGFR kinase assay (ELISA)
[3] = system: PC-9 cells; assay: CCK-8 antiproliferation assay, PC-9; details: for Inhibitory efficacy: single repeats (Repeat 1-3), given as fraction
[4] = system: H460 cells; assay: CCK-8 antiproliferation assay, H460; details: for Inhibitory efficacy: single repeats (Repeat 1-3), given as fraction
Method: The compounds were dissolved in DMSO to make a 20 μM stock solution and diluted to the concentration of working solutions with complete growth medium before administration.
Cells were seeded in 96-well plates: 3,000–5,000 cells/well in 100 ul. One day after seeding, the test compounds at concentration between 1.0 and 16.0 μ M or 0.1% DMSO (as control) were added to cells in triplicate. 48 h later, CCK-8 was added and incubated the plate for 1–4 h in the incubator. The absorbance at 450 nm were measured using a microplate reader (Bio-Tek).

[5] = system: A549 cells; assay: CCK-8 antiproliferation assay, A549; details: for Inhibitory efficacy: A549 cells
[6] = 2uM, given as fraction, Repeat 1-3
[7] = 4uM, given as fraction, Repeat 1-3
[8] = 8uM, given as fraction, Repeat 1-3
[9] = 16uM, given as fraction, Repeat 1-3

wild-type EGFR, sequence (P00533 25-1210): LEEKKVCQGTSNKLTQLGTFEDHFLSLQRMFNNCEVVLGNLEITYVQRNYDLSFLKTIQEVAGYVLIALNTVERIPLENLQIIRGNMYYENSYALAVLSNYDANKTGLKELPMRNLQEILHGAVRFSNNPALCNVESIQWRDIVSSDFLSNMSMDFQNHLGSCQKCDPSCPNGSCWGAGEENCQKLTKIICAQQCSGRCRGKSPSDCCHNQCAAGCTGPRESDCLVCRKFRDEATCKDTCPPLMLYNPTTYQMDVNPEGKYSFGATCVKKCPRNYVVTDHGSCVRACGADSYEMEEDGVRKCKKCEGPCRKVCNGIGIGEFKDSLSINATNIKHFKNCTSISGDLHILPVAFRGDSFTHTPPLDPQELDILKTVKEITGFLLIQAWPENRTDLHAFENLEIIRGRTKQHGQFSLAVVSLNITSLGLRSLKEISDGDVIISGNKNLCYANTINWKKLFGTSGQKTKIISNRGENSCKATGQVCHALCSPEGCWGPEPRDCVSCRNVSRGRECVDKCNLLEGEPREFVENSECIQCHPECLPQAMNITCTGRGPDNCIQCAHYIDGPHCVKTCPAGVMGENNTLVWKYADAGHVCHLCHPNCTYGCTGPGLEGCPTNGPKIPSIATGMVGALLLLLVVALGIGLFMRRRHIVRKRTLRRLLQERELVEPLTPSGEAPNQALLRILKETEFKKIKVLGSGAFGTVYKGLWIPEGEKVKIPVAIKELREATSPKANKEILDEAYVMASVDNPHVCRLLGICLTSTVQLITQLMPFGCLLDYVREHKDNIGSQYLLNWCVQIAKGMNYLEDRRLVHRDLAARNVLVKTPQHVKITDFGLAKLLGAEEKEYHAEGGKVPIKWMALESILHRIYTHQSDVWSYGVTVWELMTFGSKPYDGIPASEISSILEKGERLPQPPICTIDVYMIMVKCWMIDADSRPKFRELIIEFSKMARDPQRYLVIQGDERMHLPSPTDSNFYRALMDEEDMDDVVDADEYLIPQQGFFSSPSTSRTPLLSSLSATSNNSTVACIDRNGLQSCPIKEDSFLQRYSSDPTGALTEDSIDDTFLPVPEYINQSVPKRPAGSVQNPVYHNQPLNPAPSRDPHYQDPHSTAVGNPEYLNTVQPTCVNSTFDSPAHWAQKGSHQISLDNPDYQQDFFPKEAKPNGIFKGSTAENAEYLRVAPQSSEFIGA

Which Inhibitory efficacy [1, 6] does the source give for `COCCOc1cc2ncnc(Nc3cccc(-c4cn(-c5ccc(F)cc5)nn4)c3)c2cc1OCCOC` [e7, [6,7-Bis-(2-methoxy-ethoxy)-quinazolin-4-yl]-{3-[1-(4-fluoro-phenyl)-1H-[1,2,3]triazol-4-yl]-phenyl}-amine] here?
Its Inhibitory efficacy is 0.2223 and 0.2165.

And the Inhibitory efficacy [1, 7]?
Its Inhibitory efficacy is 0.3132 and 0.3374.

And the Inhibitory efficacy [1, 8]?
Its Inhibitory efficacy is 0.4723 and 0.4708.

What about the Inhibitory efficacy [1, 9] of the same compound?
Its Inhibitory efficacy is 0.4151 and 0.4664.

And the IC50 ([1]; Homo sapiens, NCI-H1975, 48 h, read-out: IC50 (μM) H1975, CCK-8, 48 h, average ± SD of three independent experiments)?
The IC50 was 13.1 ± 4.41 µM.

What about the inhibition at 2 µM ([1]; Homo sapiens, NCI-H1975, read-out: Inhibitory efficacy, H1975 cells, 2uM, given as fraction, Repeat 1-3) of the same compound?
Its inhibition at 2 µM is 29.3%.

And the inhibition at 4 µM ([1]; Homo sapiens, NCI-H1975, read-out: Inhibitory efficacy, H1975 cells, 4uM, given as fraction, Repeat 1-3)?
The inhibition at 4 µM was 38.9%.

And the inhibition at 8 µM ([1]; Homo sapiens, NCI-H1975, read-out: Inhibitory efficacy, H1975 cells, 8uM, given as fraction, Repeat 1-3)?
The inhibition at 8 µM was 50.2%.

What about the inhibition at 16 µM ([1]; Homo sapiens, NCI-H1975, read-out: Inhibitory efficacy, H1975 cells, 16uM, given as fraction, Repeat 1-3) of the same compound?
Its inhibition at 16 µM is 54.1%.

And the inhibition at 0.0003 µM ([2]; 0.3 nM, duplicate wells, calculated from A450)?
Its inhibition at 0.0003 µM is 6.05%.

What about the Inhibition ([2]; 0.3 nM, duplicate wells, calculated from A450, 0.0003 µM) of the same compound?
The Inhibition was 3.39.

What about the inhibition at 0.003 µM ([2]; 3 nM, duplicate wells, calculated from A450) of the same compound?
Its inhibition at 0.003 µM is 8.07%.

What about the Inhibition ([2]; 3 nM, duplicate wells, calculated from A450, 0.003 µM) of the same compound?
Its Inhibition is 4.0678.

What about the inhibition at 0.03 µM ([2]; 30 nM, duplicate wells, calculated from A450) of the same compound?
Its inhibition at 0.03 µM is 9.08%.

What about the Inhibition ([2]; 30 nM, duplicate wells, calculated from A450, 0.03 µM) of the same compound?
Its Inhibition is 6.78.

And the inhibition at 0.3 µM ([2]; 300 nM, duplicate wells, calculated from A450)?
Its inhibition at 0.3 µM is 10.9%.

What about the Inhibition ([2]; 300 nM, duplicate wells, calculated from A450, 0.3 µM) of the same compound?
The Inhibition was 7.627.

What about the inhibition at 3 µM ([2]; 3000 nM, duplicate wells, calculated from A450) of the same compound?
Its inhibition at 3 µM is 13.4%.

And the Inhibition ([2]; 3000 nM, duplicate wells, calculated from A450, 3 µM)?
Its Inhibition is 20.339.

What about the inhibition at 30 µM ([2]; 30000 nM, duplicate wells, calculated from A450) of the same compound?
Its inhibition at 30 µM is 61%.

And the Inhibition ([2]; 30000 nM, duplicate wells, calculated from A450, 30 µM)?
Its Inhibition is 71.3559.

What about the IC50 ([2]; IC50 (μM) EGFR, ELISA, 3 μmol/L ATP) of the same compound?
The IC50 was 14.7 µM.

And the IC50 ([3]; Homo sapiens, PC-9, 48 h, read-out: IC50 (μM) PC-9)?
The IC50 was 11.5 ± 1.57 µM.

And the inhibition at 4 µM ([3]; Homo sapiens, PC-9, read-out: Inhibitory efficacy, PC-9, 4uM, single repeats (Repeat 1-3), given as fraction)?
The inhibition at 4 µM was 21.3%.

And the inhibition at 8 µM ([3]; Homo sapiens, PC-9, read-out: Inhibitory efficacy, PC-9, 8uM, single repeats (Repeat 1-3), given as fraction)?
Its inhibition at 8 µM is 41.9%.

And the inhibition at 16 µM ([3]; Homo sapiens, PC-9, read-out: Inhibitory efficacy, PC-9, 16uM, single repeats (Repeat 1-3), given as fraction)?
Its inhibition at 16 µM is 62.5%.

What about the Inhibitory efficacy ([3]; PC-9, 4uM, 4 µM) of the same compound?
The Inhibitory efficacy was 0.2652 and 0.1935.

What about the Inhibitory efficacy ([3]; PC-9, 8uM, 8 µM) of the same compound?
Its Inhibitory efficacy is 0.448 and 0.4014.

And the Inhibitory efficacy ([3]; PC-9, 16uM, 16 µM)?
The Inhibitory efficacy was 0.5556 and 0.543.

And the Inhibitory efficacy ([4]; H460, 1uM, 1 µM)?
The Inhibitory efficacy was 0.233 and 0.152.

What about the Inhibitory efficacy ([4]; H460, 2uM, 2 µM) of the same compound?
The Inhibitory efficacy was 0.3048 and 0.3792.

What about the Inhibitory efficacy ([4]; H460, 4uM, 4 µM) of the same compound?
The Inhibitory efficacy was 0.2364 and 0.2572.

What about the Inhibitory efficacy ([4]; H460, 8uM, 8 µM) of the same compound?
The Inhibitory efficacy was 0.2581 and 0.2146.

What about the Inhibitory efficacy ([4]; H460, 16uM, 16 µM) of the same compound?
The Inhibitory efficacy was 0.3099 and 0.4184.

What about the IC50 ([4]; Homo sapiens, NCI-H460, 48 h, read-out: IC50 (μM) H460, CCK-8, 48 h, average ± SD of three independent experiments) of the same compound?
Its IC50 is over 100 µM.

And the inhibition at 1 µM ([4]; Homo sapiens, NCI-H460, read-out: Inhibitory efficacy, H460, 1uM, single repeats (Repeat 1-3), given as fraction)?
Its inhibition at 1 µM is 13.2%.

And the inhibition at 2 µM ([4]; Homo sapiens, NCI-H460, read-out: Inhibitory efficacy, H460, 2uM, single repeats (Repeat 1-3), given as fraction)?
Its inhibition at 2 µM is 30.4%.

What about the inhibition at 4 µM ([4]; Homo sapiens, NCI-H460, read-out: Inhibitory efficacy, H460, 4uM, single repeats (Repeat 1-3), given as fraction) of the same compound?
Its inhibition at 4 µM is 30.3%.

And the inhibition at 8 µM ([4]; Homo sapiens, NCI-H460, read-out: Inhibitory efficacy, H460, 8uM, single repeats (Repeat 1-3), given as fraction)?
Its inhibition at 8 µM is 29.6%.

What about the inhibition at 16 µM ([4]; Homo sapiens, NCI-H460, read-out: Inhibitory efficacy, H460, 16uM, single repeats (Repeat 1-3), given as fraction) of the same compound?
Its inhibition at 16 µM is 26.7%.

And the melting point?
Its melting point is 88 to 91 °C.

What about the Inhibitory efficacy ([5]; 1uM, given as fraction, Repeat 1-3) of the same compound?
Its Inhibitory efficacy is 0.3498 and 0.2466.

And the Inhibitory efficacy [5, 6]?
Its Inhibitory efficacy is 0.3315 and 0.2534.

What about the Inhibitory efficacy [5, 7] of the same compound?
Its Inhibitory efficacy is 0.2813 and 0.2524.

And the Inhibitory efficacy [5, 8]?
The Inhibitory efficacy was 0.2486 and 0.3238.

And the Inhibitory efficacy [5, 9]?
Its Inhibitory efficacy is 0.291 and 0.2842.

And the IC50 ([5]; Homo sapiens, A549, 48 h, read-out: IC50 (μM) A549, CCK-8, 48 h, average ± SD of three independent experiments)?
Its IC50 is over 100 µM.

What about the inhibition at 1 µM ([5]; Homo sapiens, A549, read-out: Inhibitory efficacy, A549 cells, 1uM, given as fraction, Repeat 1-3) of the same compound?
The inhibition at 1 µM was 27.5%.

What about the inhibition at 2 µM ([5]; Homo sapiens, A549, read-out: Inhibitory efficacy, A549 cells, 2uM, given as fraction, Repeat 1-3) of the same compound?
Its inhibition at 2 µM is 24.8%.

What about the inhibition at 4 µM ([5]; Homo sapiens, A549, read-out: Inhibitory efficacy, A549 cells, 4uM, given as fraction, Repeat 1-3) of the same compound?
Its inhibition at 4 µM is 30.8%.

What about the inhibition at 8 µM ([5]; Homo sapiens, A549, read-out: Inhibitory efficacy, A549 cells, 8uM, given as fraction, Repeat 1-3) of the same compound?
Its inhibition at 8 µM is 29.7%.

And the inhibition at 16 µM ([5]; Homo sapiens, A549, read-out: Inhibitory efficacy, A549 cells, 16uM, given as fraction, Repeat 1-3)?
Its inhibition at 16 µM is 37.2%.
